Measurements reported in publication PMC7782793, “Hydroxamic acid-modified peptide microarrays for profiling isozyme-selective interactions and inhibition of histone deacetylases” (Nature Communications, 2021).
Values joined by “and” are separate entries in the source; they are usually repeats but may differ in a detail not shown here. Equal values may be shown once. Marks after values point to notes of the source that are not given here. Non-standard residues stand in square brackets, D forms with d. Residues, ends and D or L forms follow the SMILES beside them. *: point of attachment. Asu = N[C@@H](CCCCCC(=O)O)C(=O)O; NHOH = ON*

Assays:
HDAC2 = target: T1, HDAC2 (Homo sapiens, UniProt Q92769); test: Recombinant HDAC µSPOT microarray binding assay;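 also: Cellulose-bound peptide spots on slides incubated with six HDAC enzyme concentrations, binding intensity read, four-parameter variable-slope fit, EC50 is enzyme concentration giving half-maximal binding, in HEPES buffer pH 7.4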
T1 construct: HDAC2 (full length, C-terminal His tag, BPS Bioscience, cat. #: 50002); purchased BPS Bioscience 50002

HDAC1 [1] = target: T2, HDAC1 (Homo sapiens, UniProt Q13547); test: HDAC inhibition assay (fluorogenic, Ac-Leu-Gly-Lys(Ac)-AMC); type: biochemical; conditions: for HDAC1 dose-response data (relative enzyme activity), Fig. 6 + S. Fig. 10: duplicate columns
T2 construct: HDAC1 (full length, C-terminal His tag, C-terminal FLAG tag, BPS Bioscience, cat. #: 50051); FLAG (C); purchased BPS Bioscience 50051

HDAC1 [2] = target: T2, HDAC1; test: Recombinant HDAC µSPOT microarray binding assay;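 also: slides with spotted peptides incubated with six HDAC concentrations in HEPES buffer pH 7.4, spot intensities fitted by four-parameter logistic, EC50 as enzyme concentration giving half-maximal binding signal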
HDAC3/NCoR2 = target: T3, HDAC3/NCoR2 (Homo sapiens, UniProt O15379); test: HDAC inhibition assay (fluorogenic, Ac-Leu-Gly-Lys(Ac)-AMC); type: biochemical; conditions: for HDAC3 dose-response data (relative enzyme activity), Fig. 6 + S. Fig. 10: duplicate columns
T3 construct: HDAC3/NCoR2 (full length, C-terminal His tag, NCoR2 N-terminal GST tag); purchased BPS Bioscience 50003

HDAC6 = target: T4, HDAC6 (Homo sapiens, UniProt Q9UBN7); test: as above; type: biochemical; conditions: HDAC6; log[inhibitor(M)] -4.30103; replicates
T4 construct: HDAC6 (full length, BPS Bioscience, cat. #: 50056); purchased BPS Bioscience 50056
T4 sequence (Q9UBN7 1-1215): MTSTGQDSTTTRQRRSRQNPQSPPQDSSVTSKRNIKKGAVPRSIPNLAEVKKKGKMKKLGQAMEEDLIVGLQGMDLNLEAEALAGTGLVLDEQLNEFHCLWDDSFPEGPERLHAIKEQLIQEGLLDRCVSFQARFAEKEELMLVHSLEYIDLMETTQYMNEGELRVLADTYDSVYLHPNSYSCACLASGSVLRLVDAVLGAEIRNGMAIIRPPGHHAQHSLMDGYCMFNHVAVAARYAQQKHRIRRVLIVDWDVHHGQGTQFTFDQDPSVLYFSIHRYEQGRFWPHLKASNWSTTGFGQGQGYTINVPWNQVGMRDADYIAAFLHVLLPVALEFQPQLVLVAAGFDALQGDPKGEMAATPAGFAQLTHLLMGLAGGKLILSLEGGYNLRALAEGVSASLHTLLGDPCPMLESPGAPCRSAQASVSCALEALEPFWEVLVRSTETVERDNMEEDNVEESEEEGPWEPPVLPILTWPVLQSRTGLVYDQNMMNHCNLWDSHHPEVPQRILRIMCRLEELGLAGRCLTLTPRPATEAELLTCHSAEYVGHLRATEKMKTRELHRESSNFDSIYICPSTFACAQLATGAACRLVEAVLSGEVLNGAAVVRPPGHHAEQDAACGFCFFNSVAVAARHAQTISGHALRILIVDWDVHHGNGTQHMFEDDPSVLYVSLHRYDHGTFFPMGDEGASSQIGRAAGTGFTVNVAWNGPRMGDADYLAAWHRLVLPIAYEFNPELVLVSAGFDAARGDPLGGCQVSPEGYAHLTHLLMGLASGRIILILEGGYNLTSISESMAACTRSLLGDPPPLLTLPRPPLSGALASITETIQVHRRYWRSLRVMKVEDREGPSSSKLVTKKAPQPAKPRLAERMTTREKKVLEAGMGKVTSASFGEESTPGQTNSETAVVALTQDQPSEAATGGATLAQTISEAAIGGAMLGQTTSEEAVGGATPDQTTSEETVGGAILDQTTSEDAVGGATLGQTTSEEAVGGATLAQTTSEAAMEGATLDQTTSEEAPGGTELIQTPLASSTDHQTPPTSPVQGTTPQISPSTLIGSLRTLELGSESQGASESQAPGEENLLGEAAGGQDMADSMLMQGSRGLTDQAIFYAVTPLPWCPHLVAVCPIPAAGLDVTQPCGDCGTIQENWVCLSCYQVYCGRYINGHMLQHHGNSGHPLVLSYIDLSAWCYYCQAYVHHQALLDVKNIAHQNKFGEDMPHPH

[3] = log[inhibitor(M)] -10,5850266520292*, whole line marked with asterisks

T2 sequence (Q13547 whole entry): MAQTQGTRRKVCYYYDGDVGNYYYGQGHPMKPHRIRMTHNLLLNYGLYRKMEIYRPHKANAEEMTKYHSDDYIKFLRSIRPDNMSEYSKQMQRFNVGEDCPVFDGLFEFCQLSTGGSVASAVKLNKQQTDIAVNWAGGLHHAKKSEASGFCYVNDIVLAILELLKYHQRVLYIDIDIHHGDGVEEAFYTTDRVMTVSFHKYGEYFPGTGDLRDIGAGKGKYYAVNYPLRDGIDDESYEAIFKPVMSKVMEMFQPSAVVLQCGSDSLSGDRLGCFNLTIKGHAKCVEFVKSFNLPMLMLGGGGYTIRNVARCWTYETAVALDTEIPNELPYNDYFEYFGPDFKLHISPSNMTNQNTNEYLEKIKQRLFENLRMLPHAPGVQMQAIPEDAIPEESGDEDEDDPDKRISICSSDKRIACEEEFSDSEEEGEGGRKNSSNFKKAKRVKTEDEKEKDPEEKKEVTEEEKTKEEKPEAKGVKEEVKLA
T3 sequence (O15379 whole entry): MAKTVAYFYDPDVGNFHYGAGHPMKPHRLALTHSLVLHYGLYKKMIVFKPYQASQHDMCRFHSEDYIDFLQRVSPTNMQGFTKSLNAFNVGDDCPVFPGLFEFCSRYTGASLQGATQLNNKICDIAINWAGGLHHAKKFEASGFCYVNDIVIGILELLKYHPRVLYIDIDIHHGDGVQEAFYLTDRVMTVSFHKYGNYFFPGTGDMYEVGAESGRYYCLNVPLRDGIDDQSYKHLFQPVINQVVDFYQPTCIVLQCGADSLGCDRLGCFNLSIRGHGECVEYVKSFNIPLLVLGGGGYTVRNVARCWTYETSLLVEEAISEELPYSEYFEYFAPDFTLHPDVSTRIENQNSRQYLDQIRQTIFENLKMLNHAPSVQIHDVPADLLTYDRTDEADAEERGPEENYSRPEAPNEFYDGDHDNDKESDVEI
T3 sequence (Q9Y618 389-480 partner limits assumed): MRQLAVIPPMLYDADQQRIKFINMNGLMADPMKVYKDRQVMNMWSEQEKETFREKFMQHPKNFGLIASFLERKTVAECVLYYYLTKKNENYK
T1 sequence (Q92769 whole entry): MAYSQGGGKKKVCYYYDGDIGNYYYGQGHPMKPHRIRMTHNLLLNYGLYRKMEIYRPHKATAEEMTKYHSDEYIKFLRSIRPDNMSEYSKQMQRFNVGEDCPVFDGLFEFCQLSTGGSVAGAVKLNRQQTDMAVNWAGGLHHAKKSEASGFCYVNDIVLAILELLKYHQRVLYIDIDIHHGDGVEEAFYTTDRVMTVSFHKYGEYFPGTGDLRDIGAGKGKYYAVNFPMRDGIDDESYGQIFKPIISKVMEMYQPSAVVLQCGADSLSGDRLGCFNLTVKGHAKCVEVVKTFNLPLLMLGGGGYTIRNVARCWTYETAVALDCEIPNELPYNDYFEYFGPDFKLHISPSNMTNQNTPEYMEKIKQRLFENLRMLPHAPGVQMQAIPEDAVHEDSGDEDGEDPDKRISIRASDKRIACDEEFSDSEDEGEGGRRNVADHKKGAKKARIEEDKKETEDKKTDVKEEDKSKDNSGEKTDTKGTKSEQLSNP

Question: How did the EC50 (HDAC2) turn out when `CC[C@H](C)[C@H](NC(=O)[C@H](CCC(=O)O)NC(=O)[C@H](CCCNC(=N)N)NC(=O)[C@H](CO)NC(=O)[C@@H](NC(=O)[C@@H](NC(=O)[C@@H](NC(=O)[C@H](CO)NC(=O)[C@H](CCCNC(=N)N)NC(=O)[C@H](CCCCCC(=O)NO)NC(=O)[C@H](CC(N)=O)NC(=O)[C@H](Cc1ccc(O)cc1)NC(=O)[C@H](Cc1c[nH]cn1)NC(C)=O)[C@@H](C)O)[C@@H](C)CC)[C@@H](C)O)C(=O)N[C@@H](CCC(N)=O)C(=O)N[C@H](C(=O)N[C@@H](C)C(=O)N[C@@H](Cc1c[nH]c2ccccc12)C(N)=O)[C@@H](C)O` [12a] (Ac-HYN[Asu](NHOH)RSTITSREIQTAW-NH2) was run?
Answer: The EC50 was > 25.1 nM.

Question: What about the Ki (HDAC1 [1]) of the same compound?
Answer: The Ki was 27.1 ± 0.1 nM.

Question: And the “HDAC1 dose-response data (relative enzyme activity), Fig. 6 + S. Fig. 10” value (HDAC1 [1]; log[inhibitor(M)] -4.30103)?
Answer: Its value is 0.9347 and 0.662.

Question: And the “HDAC1 dose-response data (relative enzyme activity), Fig. 6 + S. Fig. 10” value (HDAC1 [1]; log[inhibitor(M)] -5)?
Answer: Its value is 2.038 and 1.878.

Question: What about the “HDAC1 dose-response data (relative enzyme activity), Fig. 6 + S. Fig. 10” value (HDAC1 [1]; log[inhibitor(M)] -5.69897) of the same compound?
Answer: The value was 7.98 and 7.034.

Question: And the “HDAC1 dose-response data (relative enzyme activity), Fig. 6 + S. Fig. 10” value (HDAC1 [1]; log[inhibitor(M)] -6.39794)?
Answer: Its value is 27.0557 and 22.8999.

Question: What about the “HDAC1 dose-response data (relative enzyme activity), Fig. 6 + S. Fig. 10” value (HDAC1 [1]; log[inhibitor(M)] -7.09691) of the same compound?
Answer: Its value is 60.7171 and 55.9643.

Question: And the “HDAC1 dose-response data (relative enzyme activity), Fig. 6 + S. Fig. 10” value (HDAC1 [1]; log[inhibitor(M)] -7.79588)?
Answer: The value was 89.3741 and 84.8138.

Question: And the “HDAC1 dose-response data (relative enzyme activity), Fig. 6 + S. Fig. 10” value (HDAC1 [1]; log[inhibitor(M)] -8.49485)?
Answer: Its value is 97.3199 and 95.6638.

Question: What about the “HDAC1 dose-response data (relative enzyme activity), Fig. 6 + S. Fig. 10” value (HDAC1 [1]; log[inhibitor(M)] -9.19382) of the same compound?
Answer: Its value is 101.477 and 97.552.

Question: And the “HDAC1 dose-response data (relative enzyme activity), Fig. 6 + S. Fig. 10” value (HDAC1 [1]; log[inhibitor(M)] -9.89279)?
Answer: Its value is 101.081 and 96.9441.

Question: And the “HDAC1 dose-response data (relative enzyme activity), Fig. 6 + S. Fig. 10” value (HDAC1 [1]; [3])?
Answer: Its value is 100,220716* and 99,6623992*.

Question: What about the EC50 (HDAC1 [2]) of the same compound?
Answer: Its EC50 is > 25.1 nM.

Question: What about the Ki (HDAC3/NCoR2) of the same compound?
Answer: Its Ki is 10.6 ± 0.1 nM.

Question: What about the “HDAC3 dose-response data (relative enzyme activity), Fig. 6 + S. Fig. 10” value (HDAC3/NCoR2; log[inhibitor(M)] -4.30103) of the same compound?
Answer: Its value is 0.7368 and 0.5682.

Question: What about the “HDAC3 dose-response data (relative enzyme activity), Fig. 6 + S. Fig. 10” value (HDAC3/NCoR2; log[inhibitor(M)] -5) of the same compound?
Answer: Its value is 1.408 and 1.481.

Question: And the “HDAC3 dose-response data (relative enzyme activity), Fig. 6 + S. Fig. 10” value (HDAC3/NCoR2; log[inhibitor(M)] -5.69897)?
Answer: The value was 5.267 and 4.363.

Question: And the “HDAC3 dose-response data (relative enzyme activity), Fig. 6 + S. Fig. 10” value (HDAC3/NCoR2; log[inhibitor(M)] -6.39794)?
Answer: The value was 16.4324 and 13.9407.

Question: What about the “HDAC3 dose-response data (relative enzyme activity), Fig. 6 + S. Fig. 10” value (HDAC3/NCoR2; log[inhibitor(M)] -7.09691) of the same compound?
Answer: Its value is 38.5352 and 35.6199.

Question: And the “HDAC3 dose-response data (relative enzyme activity), Fig. 6 + S. Fig. 10” value (HDAC3/NCoR2; log[inhibitor(M)] -7.79588)?
Answer: Its value is 73.2464 and 64.9902.

Question: What about the “HDAC3 dose-response data (relative enzyme activity), Fig. 6 + S. Fig. 10” value (HDAC3/NCoR2; log[inhibitor(M)] -8.49485) of the same compound?
Answer: The value was 93.6652 and 87.0389.

Question: And the “HDAC3 dose-response data (relative enzyme activity), Fig. 6 + S. Fig. 10” value (HDAC3/NCoR2; log[inhibitor(M)] -9.19382)?
Answer: Its value is 96.2351 and 93.241.

Question: What about the “HDAC3 dose-response data (relative enzyme activity), Fig. 6 + S. Fig. 10” value (HDAC3/NCoR2; log[inhibitor(M)] -9.89279) of the same compound?
Answer: The value was 95.5729 and 96.0845.

Question: What about the “HDAC3 dose-response data (relative enzyme activity), Fig. 6 + S. Fig. 10” value (HDAC3/NCoR2; [3]) of the same compound?
Answer: Its value is 103,997369* and 102,157851*.

Question: What about the “selectivity for HDAC3 vs. HDACs 1 and 2” value (HDAC3/NCoR2; resynthesized peptides, from Ki) of the same compound?
Answer: The value was ~ 2 fold.

Question: What about the “residual enzymatic activity relative to control wells” value (HDAC6) of the same compound?
Answer: The value was 1.727 and 0.8308.
